Laboratory results as given in publication PMC5688144, “Assay interference and off-target liabilities of reported histone acetyltransferase inhibitors” (Nature Communications, 2017).
“Also recorded” adds a separate entry of the source. Read-outs that look alike come from different tables or passages of the source.

Assays:
human La antigen = biological target: T1, human La antigen (Homo sapiens, UniProt P05455, T302N); assay: ALARM NMR; format: binding; settings: 400 μM compound; for ALARM NMR, (-) DTT: 0 mM DTT; for ALARM NMR, (+) DTT: DTT present; for ALARM NMR interpretation: with and without DTT; for ALARM NMR readout: overall readout
T1 construct: amino acids 100–324 of the human La antigen (plus T302N mutation); 6xHis (N); 6xHis (C); host or cells: Escherichia coli Rosetta cells
T1 sequence (P05455 100-324 T302N): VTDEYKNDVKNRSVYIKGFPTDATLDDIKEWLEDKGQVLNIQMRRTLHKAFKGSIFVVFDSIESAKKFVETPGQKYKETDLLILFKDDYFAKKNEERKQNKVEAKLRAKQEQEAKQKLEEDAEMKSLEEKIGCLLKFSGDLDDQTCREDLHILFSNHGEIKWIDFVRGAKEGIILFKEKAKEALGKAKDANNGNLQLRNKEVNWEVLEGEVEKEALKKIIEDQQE
Excerpt: The gene encoding amino acids 100–324 of the human La antigen (plus T302N mutation) was cloned into pET28b + vector (Novagen) with both an N- and C-terminal 6xHis tag (addgene.org, plasmid ID 90209). The sequence identity of the ALARM NMR plasmid construct was verified by Sanger sequencing of the transgene region and next-generation sequencing of the whole plasmid.
Plasmid was transformed into Escherichia coli Rosetta cells (Novagen) and cultured in M9 minimal media. The La antigen was labeled by adding ^13C-labeled amino acid precursors ([3-^13C]-α-ketobutyrate and [3,3′-^13C]-α-ketoisovalerate sodium salts; Cambridge Isotope Laboratories; 250 mg L^−1 final concentrations) to culture medium 30 min before induction with IPTG (1 mM final concentration). Bacteria were collected after incubation at 25 °C for 8 h and washed with ice-cold phosphate-buffered saline (PBS). Washed cells were lysed by French press in ice-cold lysis buffer (50 mM Tris, pH 7.6, 300 mM NaCl, 10% glycerol (v/v), 5 mM β-mercaptoethanol (BME), 5 mM imidazole, 2 mM MgCl2, benzonase, and protease inhibitor cocktail), followed by an additional brief sonication step (3 × 15 s pulse sequence) on ice. This lysed solution was centrifuged (30,000×g for 30 min, two cycles) to remove cellular debris, then loaded onto a pre-washed Ni-NTA bead column (Qiagen) kept at 4 °C and washed with buffer (50 mM Tris, pH 7.6, 300 mM NaCl, 10% glycerol (v/v), 5 mM BME, 5 mM imidazole). The La antigen was eluted with an elution buffer (50 mM Tris, pH 7.6, 300 mM NaCl, 10% glycerol (v/v), 5 mM BME, imidazole gradient ranging from 5 mM to 0.5 M). […] Aliquots were flash-frozen in liquid N2 and stored at −80 °C until further use. Before use, aliquots of ~150 μM protein were incubated in the presence of 20 mM DTT at 37 °C for 1 h, then dialyzed (25 mM sodium phosphate buffer, pH 7.0 (no DTT)) in 16 h cycles at 4 °C with constant nitrogen bubbling and with gentle stirring, for three total buffer cycles.
For standard testing conditions, the [^1H-^13C]-HMQC spectra were acquired in 25 mM sodium phosphate buffer, pH 7.0, 10% D2O (v/v; CIL) ± 400 μM test compounds delivered from the aforementioned stock solutions, and ± 20 mM non-deuterated DTT. Final concentration of DMSO was 4.0% (v/v). Reaction solutions were mixed, then centrifuged for 5 min (1000×g) in non-binding 384-well microplates at RT, then incubated at 37 °C for 1 h and then 30 °C for 15 h before obtaining spectra. Samples were checked for evidence of gross precipitation. Data were recorded at 298 K on a Bruker UltraShield 700 MHz NMR spectrometer equipped with a Bruker 1.7 mm TCI Cryoprobe and Bruker SampleJet autosampler. Samples were tested at 50 μM protein concentrations using 16 scans, 2048 complex points in F2, and 80 points in F1 using standard protein [^1H-^13C]-HMQC and water suppression pulse sequences.
Data were analyzed in TopSpin™ 3.5 (Bruker). Reactions were normalized to equivalent DMSO controls. Non-reactive compounds were identified by the absence of chemical shifts or changes in peak intensities (^13C-methyl) ± 20 mM DTT.

Tip60 = settings: cited from earlier work; for IC50: original report, 24 (Supplementary References)
GCN5 = settings: cited from earlier work
p300/CBP = settings: cited from earlier work; for IC50: original report, 27 (Supplementary References)
[1] = @ 100 µM, 20 (Supplementary References)
[2] = original report, 22 (Supplementary References)
[3] = @ 100 µM, ref 25 (Supplementary References)
[4] = @ 25 µM, ref 13 (Supplementary References)

Molecule	ALARM NMR, (-) DTT (human La antigen)	ALARM NMR, (+) DTT (human La antigen)	ALARM NMR interpretation (human La antigen)	further results
Cc1cc2c(C(C)C)c(O)c(O)c(C=O)c2c(O)c1-c1c(C)cc2c(C(C)C)c(O)c(O)c(C=O)c2c1O [Compound 16, Gossypol]	Positive	Positive	nonspecific protein perturbation	% inhibition, Tip60 (Tip60; [1]): < 10%
COc1cc(/C=C/c2cc(/C=C/c3ccc(O)c(OC)c3)n(-c3ccc(C(=O)[O-])cc3)n2)ccc1O.[Na+] [Compound 17, CTK7A]	Positive	Positive	several new peaks independent of DTT; also recorded: Nonspecific perturbation (new peaks)	% inhibition, GCN5 (GCN5; @ 40 µM, ref 21 (Supplementary References)): 40%
Clc1ccc(-c2csc(NN=C3CCCC3)n2)cc1 [Compound 7, CPTH2]	Positive	Negative	Thiol-reactive	IC50 (GCN5; [2]): ~500 µM
CC1=NN(c2ccc(C(=O)O)cc2)C(=O)/C1=C/c1ccc(-c2cc(C)c(C)cc2[N+](=O)[O-])o1 [Compound 1, C646]	positive	Negative	Thiol-reactive	IC50 (p300/CBP): […]; % inhibition, GCN5 (GCN5; @ 10 µM, ref 5 (Supplementary References)): < 10%
Cl.Cl.O=C(O)Cn1nnc(-c2ccc(CN(CCCCOc3ccc(CN4CCCC4)cc3)CCc3ccccc3)cc2)n1 [Compound 20, TH1834]	Negative	Negative	Inert as tested	IC50 (Tip60): ~500 µM
Cc1cc(O)cc(C)c1C=C1C(=O)N(Cc2ccccc2)C(=O)N(Cc2ccccc2)C1=O [Compound 4, EML425]	Positive	Negative	Thiol-reactive	ALARM NMR readout (human La antigen): positive
Plumbagin [Compound 8]	Positive	Negative	Thiol-reactive	
COc1ccc(/C(Cl)=C(/C=O)c2ccc(OC)cc2)cc1 [Compound 18, Windorphen]	Negative	Negative	Inert as tested	ALARM NMR readout (human La antigen): negative; IC50 (GCN5; [2]): > 100 µM
CCCCCCCc1ccc(CCc2cccc(O)c2C(=O)O)cc1 [Compound 15, MG 149]	Positive	Positive	nonspecific protein perturbation; also recorded: potential aggregator	% inhibition, p300/CBP (p300/CBP; @ 200 µM, ref 19 (Supplementary References)): 30%; IC50 (Tip60): 74 µM
COc1ccc(S(=O)(=O)ON=C2C=C(C)C(=O)C(C)=C2)cc1 [Compound 5, L002]	Positive	Negative	Thiol-reactive	IC50 (GCN5; HotSpot assay, ref 9 (Supplementary References)): 33.9 µM; % inhibition, Tip60 (Tip60; [1]): 2%
O=c1c2cccnc2sn1Cc1ccc(C(F)(F)F)cc1 [Compound 3, PU141]	Positive	Negative	Thiol-reactive	
C=C1C(=O)O[C@H](CCC)[C@H]1C(=O)O [Compound 6, MB-3]	Positive	Negative	Thiol-reactive	IC50 (GCN5; [2]): 100 µM
Garcinol [Compound 13]	Positive	Positive	Nonspecific perturbation	IC50 (p300/CBP): 5 µM
CCCCCCCCCCCCCCCc1cccc(O)c1C(=O)O [Compound 14, Anacardic acid]	Positive	Positive	Nonspecific perturbation	IC50 (p300/CBP): 8.5 µM
CCCC1(c2ccccc2)NC(=O)N(CC(=O)N(C)Cc2c(F)cccc2Cl)C1=O (centres unmarked) [Compound 21, N-[(2-chloro-6-fluorophenyl)methyl]-2-(2,5-dioxo-4-phenyl-4-propylimidazolidin-1-yl)-N-methylacetamide]	Negative	Negative	Inert as tested	% inhibition, p300/CBP (p300/CBP; [3]): < 25%; % inhibition, GCN5 (GCN5; [3]): < 25%
O=C1/C(=C/c2ccc(O)c(Br)c2)CCC/C1=C\c1ccc(O)c(Br)c1 [Compound 12, HAT inhibitor II]	Partial	Negative	Equivocal	IC50 (p300/CBP): 5 µM; % inhibition, GCN5 (GCN5; @ 5 µM, ref 16 (Supplementary References)): 30%
O=C(O[C@@H]1Cc2c(O)cc(O)cc2O[C@@H]1c1cc(O)c(O)c(O)c1)c1cc(O)c(O)c(O)c1 [Compound 10, (-)-Epigallocatechin gallate]	Positive	Negative	Thiol-reactive	IC50 (Tip60): 70 µM
COc1cc(/C=C/C(=O)CC(=O)/C=C/c2ccc(O)c(OC)c2)ccc1O [Compound 11, Curcumin]	Partial	Negative	Equivocal	
CCCCCCCCCCCC1=C(O)C(=O)C=C(O)C1=O [Compound 9, Embelin]	Positive	Positive	Thiol-reactive, nonspecific perturbation	% inhibition, p300/CBP (p300/CBP; [4]): 25%; % inhibition, Tip60 (Tip60; [4]): 25%
